Earlier results on one compound are cited in US20180185484A1, “PREPARATION AND USE OF PLATELET PRODUCTS” (Cerus Corporation, priority 2015, published 2018).

For this series, the system named is T lymphocytes. Particulars: treated platelet preparations, after photoactivation; Grass et al., 1998.

As to `Cc1oc2c(C)c3oc(=O)cc(C)c3cc2c1COCCN` [amotosalen, 4′-(4-amino-2-oxa)butyl-4,5′,8-trimethylpsoralen], the “reduction of viable T lymphocytes” value is “greater than 5 logs”.
